Laboratory results: patent US11331369B2, “Endoparasitic depsipeptides” (Zoetis Services LLC, priority 2017, dated 2022)

How the values were obtained:
[1] = system: third stage larvae of Haemonchus contortus; assay: Haemonchus contortus L3 (HcL3) Assay; type: cell-based; details: 96 h, read-out: HcL3 Minimum Effective Dose (MED)
[2] = system: microfilariae of Dirofilaria immitis; assay: Dirofilaria immitis, Microfilaria (DiMF) In vitro Assay; type: cell-based; details: 72 h, read-out: DiMF Minimum Effective Dose (MED), approximately 72 hours incubation, microfilariae assessed for survival or paralysis

SMILES	minimal effective concentration [1] [µM]	minimal effective concentration [2] [µM]
CC(C)C[C@H]1C(=O)O[C@H](C)C(=O)N(C)[C@@H](CC(C)C)C(=O)O[C@H](Cc2ccccc2)C(=O)N(C)[C@@H](CC(C)C)C(=O)O[C@H](C)C(=O)N(C)[C@@H](CC(C)C)C(=O)O[C@@H](Cc2ccc(CN3CCC(F)(F)CC3)cc2)C(=O)N1C [Example 10-3, (3S,6R,9S,12R,15S,18S,21S,24R)-6-benzyl-18-(4-((4,4-difluoropiperidin-1-yl)methyl)benzyl)-3,9,15,21-tetraisobutyl-4,10,12,16,22,24-hexamethyl-1,7,13,19-tetraoxa-4,10,16,22-tetraazacyclotetracosan-2,5,8,11,14,17,20,23-octaone]	1 to 10	0.01 to 0.1
CC(C)C[C@H]1C(=O)O[C@H](Cc2ccc(Cn3ccnn3)cc2)C(=O)N(C)[C@@H](CC(C)C)C(=O)O[C@H](C)C(=O)N(C)[C@@H](CC(C)C)C(=O)O[C@H](Cc2ccc(Cn3ccnn3)cc2)C(=O)N(C)[C@@H](CC(C)C)C(=O)O[C@H](C)C(=O)N1C [Example 9-6, (3S,6R,9S,12R,15S,18R,21S,24R)-6,18-bis(4-((1H-1,2,3-triazol-1-yl)methyl)benzyl)-3,9,15,21-tetraisobutyl-4,10,12,16,22,24-hexamethyl-1,7,13,19-tetraoxa-4,10,16,22-tetraazacyclotetracosan-2,5,8,11,14,17,20,23-octaone]	1 to 10	0.001 to 0.01
Cc1cc(C)n(Cc2ccc(C[C@H]3OC(=O)[C@H](CC(C)C)N(C)C(=O)[C@@H](C)OC(=O)[C@H](CC(C)C)N(C)C(=O)[C@@H](Cc4ccccc4)OC(=O)[C@H](CC(C)C)N(C)C(=O)[C@@H](C)OC(=O)[C@H](CC(C)C)N(C)C3=O)cc2)n1 [Example 2-7, (3S,6R,9S,12R,15S,18R,21S,24R)-6-benzyl-18-[[4-[(3,5-dimethylpyrazol-1-yl)methyl]phenyl]methyl]-3,9,15,21-tetraisobutyl-4,10,12,16,22,24-hexamethyl-1,7,13,19-tetraoxa-4,10,16,22-tetrazacyclotetracosane-2,5,8,11,14,17,20,23-octaone]	1 to 10	0.001 to 0.01
COc1cnn(Cc2ccc(C[C@H]3OC(=O)[C@H](CC(C)C)N(C)C(=O)[C@@H](C)OC(=O)[C@H](CC(C)C)N(C)C(=O)[C@@H](Cc4ccc(Cn5cc(OC)cn5)cc4)OC(=O)[C@H](CC(C)C)N(C)C(=O)[C@@H](C)OC(=O)[C@H](CC(C)C)N(C)C3=O)cc2)c1 [Example 1b-52, (3S,6R,9S,12R,15S,18R,21S,24R)-3,9,15,21-tetraisobutyl-6,18-bis(4-((4-methoxy-1H-pyrazol-1-yl)methyl)benzyl)-4,10,12,16,22,24-hexamethyl-1,7,13,19-tetraoxa-4,10,16,22-tetraazacyclotetracosan-2,5,8,11,14,17,20,23-octaone]	1 to 10	0.001 to 0.01
CC(C)C[C@H]1C(=O)O[C@H](Cc2ccc(Cn3ccccc3=O)cc2)C(=O)N(C)[C@@H](CC(C)C)C(=O)O[C@H](C)C(=O)N(C)[C@@H](CC(C)C)C(=O)O[C@H](Cc2ccccc2)C(=O)N(C)[C@@H](CC(C)C)C(=O)O[C@H](C)C(=O)N1C [Example 10-17, (3S,6R,9S,12R,15S,18R,21S,24R)-6-benzyl-3,9,15,21-tetraisobutyl-4,10,12,16,22,24-hexamethyl-18-(4-((2-oxopyridin-1 (2H)-yl)methyl)benzyl)-1,7,13,19-tetraoxa-4,10,16,22-tetraazacyclotetracosan-2,5,8,11,14,17,20,23-octaone]	1 to 10	0.001 to 0.01
Cc1cnn(Cc2ccc(C[C@H]3OC(=O)[C@H](CC(C)C)N(C)C(=O)[C@@H](C)OC(=O)[C@H](CC(C)C)N(C)C(=O)[C@@H](Cc4ccc(Cn5cc(C)cn5)cc4)OC(=O)[C@H](CC(C)C)N(C)C(=O)[C@@H](C)OC(=O)[C@H](CC(C)C)N(C)C3=O)cc2)c1 [Example 1b-24, (3S,6R,9S,12R,15S,18R,21S,24R)-3,9,15,21-tetraisobutyl-4,6,10,16,18,22-hexamethyl-12,24-bis[[4-[(4-methylpyrazol-1-yl)methyl]phenyl]methyl]-1,7,13,19-tetraoxa-4,10,16,22-tetrazacyclotetracosane-2,5,8,11,14,17,20,23-octaone]	1 to 10	0.001 to 0.01
CCc1ccn(Cc2ccc(C[C@H]3OC(=O)[C@H](CC(C)C)N(C)C(=O)[C@@H](C)OC(=O)[C@H](CC(C)C)N(C)C(=O)[C@@H](Cc4ccc(Cn5ccc(CC)n5)cc4)OC(=O)[C@H](CC(C)C)N(C)C(=O)[C@@H](C)OC(=O)[C@H](CC(C)C)N(C)C3=O)cc2)n1 [Example 1b-95, (3S,6R,9S,12R,15S,18R,21S,24R)-6,18-bis(4-((3-ethyl-1H-pyrazol-1-yl)methyl)benzyl)-3,9,15,21-tetraisobutyl-4,10,12,16,22,24-hexamethyl-1,7,13,19-tetraoxa-4,10,16,22-tetraazacyclotetracosan-2,5,8,11,14,17,20,23-octaone]	1 to 10	0.001 to 0.01
CC(C)C[C@H]1C(=O)O[C@H](Cc2ccc(Cn3cc4c(n3)CCOC4)cc2)C(=O)N(C)[C@@H](CC(C)C)C(=O)O[C@H](C)C(=O)N(C)[C@@H](CC(C)C)C(=O)O[C@H](Cc2ccc(Cn3cc4c(n3)CCOC4)cc2)C(=O)N(C)[C@@H](CC(C)C)C(=O)O[C@H](C)C(=O)N1C [Example 9-41, (3S,6R,9S,12R,15S,18R,21S,24R)-6,18-bis(4-((6,7-dihydropyrano[4,3-c]pyrazol-2(4H)-yl)methyl)benzyl)-3,9,15,21-tetraisobutyl-4,10,12,16,22,24-hexamethyl-1,7,13,19-tetraoxa-4,10,16,22-tetraazacyclotetracosan-2,5,8,11,14,17,20,23-octaone]	1 to 10	0.001 to 0.01
CC(C)C[C@H]1C(=O)O[C@H](Cc2ccc(Cn3ccnc3C(C)C)cc2)C(=O)N(C)[C@@H](CC(C)C)C(=O)O[C@H](C)C(=O)N(C)[C@@H](CC(C)C)C(=O)O[C@H](Cc2ccccc2)C(=O)N(C)[C@@H](CC(C)C)C(=O)O[C@H](C)C(=O)N1C [Example 8-8, (3S,6R,9S,12R,15S,18R,21S,24R)-6-benzyl-3,9,15,21-tetraisobutyl-18-(4-((2-isopropyl-1H-imidazol-1-yl)methyl)benzyl)-4,10,12,16,22,24-hexamethyl-1,7,13,19-tetraoxa-4,10,16,22-tetraazacyclotetracosan-2,5,8,11,14,17,20,23-octaone]	1 to 10	0.001 to 0.01
CC(C)C[C@H]1C(=O)O[C@H](Cc2ccc(Cn3cc(C(C)(C)C)cn3)cc2)C(=O)N(C)[C@@H](CC(C)C)C(=O)O[C@H](C)C(=O)N(C)[C@@H](CC(C)C)C(=O)O[C@H](Cc2ccc(Cn3cccn3)cc2)C(=O)N(C)[C@@H](CC(C)C)C(=O)O[C@H](C)C(=O)N1C [Example 1a-17, (3S,6R,9S,12R,15S,18R,21S,24R)-6-(4-((1H-pyrazol-1-yl)methyl)benzyl)-18-(4-((4-(tert-butyl)-1H-pyrazol-1-yl)methyl)benzyl)-3,9,15,21-tetraisobutyl-4,10,12,16,22,24-hexamethyl-1,7,13,19-tetraoxa-4,10,16,22-tetraazacyclotetracosan-2,5,8,11,14,17,20,23-octaone]	1 to 10	0.001 to 0.01
